Measured values as given in PubChem BioAssay (NCI).
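Here, GI50 denotes the concentration required for 50% inhibition of growth. TGI marks complete inhibition of growth.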

How the values were obtained:
Test in all cases: DTP human tumour cell line panel, 384-well format
[1] = system: 786-0 renal
[2] = system: A498 renal
[3] = system: A549 NSCLC
[4] = system: ACHN renal
[5] = system: BT-549 breast
[6] = system: CAKI-1 renal
[7] = system: CCRF-CEM leukemia
[8] = system: COLO 205 colon
[9] = system: DU-145 prostate
[10] = system: EKVX NSCLC
[11] = system: HCC-2998 colon
[12] = system: HCT-116 colon
[13] = system: HCT-15 colon
[14] = system: HL-60(TB) leukemia
[15] = system: HOP-62 NSCLC
[16] = system: HOP-92 NSCLC
[17] = system: HS 578T breast
[18] = system: HT29 colon
[19] = system: IGROV1 ovarian
[20] = system: K-562 leukemia
[21] = system: KM12 colon
[22] = system: LOX IMVI melanoma
[23] = system: M14 melanoma
[24] = system: MALME-3M melanoma
[25] = system: MCF7 breast
[26] = system: MDA-MB-231 breast
[27] = system: MDA-MB-435 melanoma
[28] = system: MDA-MB-468 breast
[29] = system: MOLT-4 leukemia
[30] = system: NCI-H226 lung
[31] = system: NCI-H23 lung
[32] = system: NCI-H322M lung
[33] = system: NCI-H460 NSCLC
[34] = system: NCI-H522 lung
[35] = system: NCI/ADR-RES ovarian
[36] = system: OVCAR-3 ovarian
[37] = system: OVCAR-4 ovarian
[38] = system: OVCAR-5 ovarian
[39] = system: OVCAR-8 ovarian
[40] = system: PC-3 prostate
[41] = system: RPMI-8226 leukemia
[42] = system: RXF 393 renal
[43] = system: SF-268 CNS
[44] = system: SF-295 CNS
[45] = system: SF-539 CNS
[46] = system: SK-MEL-2 melanoma
[47] = system: SK-MEL-28 melanoma
[48] = system: SK-MEL-5 melanoma
[49] = system: SK-OV-3 ovarian
[50] = system: SN12C renal
[51] = system: SNB-19 CNS
[52] = system: SNB-75 CNS
[53] = system: SW-620 colon
[54] = system: T-47D breast
[55] = system: TK-10 renal
[56] = system: U251 glioblastoma
[57] = system: UACC-257 melanoma
[58] = system: UACC-62 melanoma
[59] = system: UO-31 renal
[60] = system: SR leukemia

CNC(=O)c1cccc2cc(Oc3ccnc4cc(OCC5(N)CC5)c(OC)cc34)ccc12
GI50 [1]: 1.77 µM
TGI [1]: 3.49 µM
GI50 [2]: 2.5 µM
TGI [2]: 6.93 µM
GI50 [3]: 4.22 µM
TGI [3]: 14.6 µM
GI50 [4]: 1.67 µM
TGI [4]: 3.37 µM
GI50 [5]: 1.78 µM
TGI [5]: 8.85 µM
GI50 [6]: 2.02 µM
TGI [6]: 5.35 µM
GI50 [7]: 1.67 µM
TGI [7]: 3.23 µM
GI50 [8]: 3.22 µM
TGI [8]: 10.2 µM
GI50 [9]: 5.43 µM
TGI [9]: 17.6 µM
GI50 [10]: 3.66 µM
TGI [10]: 14.8 µM
GI50 [11]: 5.53 µM
TGI [11]: 16 µM
GI50 [12]: 1.98 µM
TGI [12]: 3.84 µM
GI50 [13]: 3.87 µM
TGI [13]: 13.1 µM
GI50 [14]: 2.28 µM
TGI [14]: 3.75 µM
GI50 [15]: 2.91 µM
TGI [15]: 15.5 µM
GI50 [16]: 4.13 µM
TGI [16]: 15.2 µM
GI50 [17]: 1.23 µM
TGI [17]: 4.08 µM
GI50 [18]: 5.88 µM
TGI [18]: 17.9 µM
GI50 [19]: 5.36 µM
TGI [19]: 17.5 µM
GI50 [20]: 1.7 µM
TGI [20]: 3.59 µM
GI50 [21]: 3.83 µM
TGI [21]: 15.1 µM
GI50 [22]: 2.41 µM
TGI [22]: 5.84 µM
GI50 [23]: 3.97 µM
TGI [23]: 14.3 µM
GI50 [24]: 4.05 µM
TGI [24]: 15.7 µM
GI50 [25]: 2.37 µM
TGI [25]: 10.8 µM
GI50 [26]: 3.64 µM
TGI [26]: 14.4 µM
GI50 [27]: 2.63 µM
TGI [27]: 7.43 µM
GI50 [28]: 2.38 µM
TGI [28]: 5.54 µM
GI50 [29]: 1.2 µM
TGI [29]: 2.45 µM
GI50 [30]: 1.03 µM
TGI [30]: 4.73 µM
GI50 [31]: 4.73 µM
TGI [31]: 16.4 µM
GI50 [32]: 6.8 µM
TGI [32]: 19.4 µM
GI50 [33]: 2.74 µM
TGI [33]: 7.12 µM
GI50 [34]: 2.75 µM
TGI [34]: 9.57 µM
GI50 [35]: 13.3 µM
TGI [35]: 27 µM
GI50 [36]: 2.23 µM
TGI [36]: 5.94 µM
GI50 [37]: 1.48 µM
TGI [37]: 4.04 µM
GI50 [38]: 5.37 µM
TGI [38]: 16.8 µM
GI50 [39]: 4.05 µM
TGI [39]: 16.1 µM
GI50 [40]: 4.42 µM
TGI [40]: 16.2 µM
GI50 [41]: 1.98 µM
TGI [41]: 5.13 µM
GI50 [42]: 1.64 µM
TGI [42]: 4.39 µM
GI50 [43]: 4.31 µM
TGI [43]: 17.9 µM
GI50 [44]: 6.14 µM
TGI [44]: 18.7 µM
GI50 [45]: 0.621 µM
TGI [45]: 4.94 µM
GI50 [46]: 1.89 µM
TGI [46]: 4.35 µM
GI50 [47]: 12.1 µM
TGI [47]: 24.6 µM
GI50 [48]: 2.3 µM
TGI [48]: 8.66 µM
GI50 [49]: 3.01 µM
TGI [49]: 11.6 µM
GI50 [50]: 2.55 µM
TGI [50]: 8.63 µM
GI50 [51]: 3.89 µM
TGI [51]: 15.7 µM
GI50 [52]: 1.02 µM
TGI [52]: 9.33 µM
GI50 [53]: 4.12 µM
TGI [53]: 15 µM
GI50 [54]: 2.14 µM
TGI [54]: 7.39 µM
GI50 [55]: 2.55 µM
TGI [55]: 6.52 µM
GI50 [56]: 3.73 µM
TGI [56]: 14.9 µM
GI50 [57]: 4.04 µM
TGI [57]: 14.2 µM
GI50 [58]: 2.37 µM
TGI [58]: 6.72 µM
GI50 [59]: 3.17 µM
TGI [59]: 10.9 µM

COc1cc(Nc2c(C#N)cnc3cc(OCCCN4CCN(C)CC4)c(OC)cc23)c(Cl)cc1Cl
GI50 [1]: 0.764 µM
TGI [1]: 2.58 µM
GI50 [2]: 0.806 µM
TGI [2]: 3.61 µM
GI50 [3]: 1.6 µM
TGI [3]: 4.64 µM
GI50 [4]: 0.443 µM
TGI [4]: 4.05 µM
GI50 [5]: 1.21 µM
TGI [5]: 3.31 µM
GI50 [6]: 0.431 µM
TGI [6]: 2.09 µM
GI50 [7]: 2.04 µM
TGI [7]: 3.64 µM
GI50 [8]: 2.01 µM
TGI [8]: 5.45 µM
GI50 [9]: 0.645 µM
TGI [9]: 2.85 µM
GI50 [10]: 1.57 µM
TGI [10]: 5.85 µM
GI50 [11]: 2.2 µM
TGI [11]: 4.35 µM
GI50 [12]: 1.15 µM
TGI [12]: 2.57 µM
GI50 [13]: 1.14 µM
TGI [13]: 3.74 µM
GI50 [14]: 1.39 µM
TGI [14]: 2.72 µM
GI50 [15]: 1.69 µM
TGI [15]: 5.02 µM
GI50 [16]: 1.1 µM
TGI [16]: 2.79 µM
GI50 [17]: 1.29 µM
TGI [17]: 4.24 µM
GI50 [18]: 1.43 µM
TGI [18]: 3.59 µM
GI50 [19]: 0.146 µM
TGI [19]: 0.899 µM
GI50 [21]: 0.448 µM
TGI [21]: 4.03 µM
GI50 [22]: 0.637 µM
TGI [22]: 2.13 µM
GI50 [23]: 1.16 µM
TGI [23]: 2.49 µM
GI50 [24]: 1.04 µM
TGI [24]: 2.47 µM
GI50 [25]: 2.4 µM
TGI [25]: 5.38 µM
GI50 [26]: 1.41 µM
TGI [26]: 2.76 µM
GI50 [27]: 2.12 µM
TGI [27]: 5.43 µM
GI50 [28]: 0.998 µM
TGI [28]: 2.66 µM
GI50 [29]: 0.612 µM
TGI [29]: 2 µM
GI50 [30]: 2.77 µM
TGI [30]: 6.25 µM
GI50 [31]: 1.69 µM
TGI [31]: 4.26 µM
GI50 [32]: 0.423 µM
TGI [32]: 2.36 µM
GI50 [33]: 1.62 µM
TGI [33]: 5.14 µM
GI50 [34]: 0.133 µM
TGI [34]: 2.78 µM
GI50 [35]: 2.14 µM
TGI [35]: 4.66 µM
GI50 [36]: 1.49 µM
TGI [36]: 5.02 µM
GI50 [37]: 1.85 µM
TGI [37]: 4.18 µM
GI50 [38]: 1.84 µM
TGI [38]: 6.66 µM
GI50 [39]: 1.94 µM
TGI [39]: 5.02 µM
GI50 [40]: 2.58 µM
TGI [40]: 7.12 µM
GI50 [41]: 0.898 µM
TGI [41]: 2.35 µM
GI50 [42]: 0.368 µM
TGI [42]: 1.46 µM
GI50 [43]: 1.85 µM
TGI [43]: 5.52 µM
GI50 [44]: 2.68 µM
TGI [44]: 5.77 µM
GI50 [45]: 1.55 µM
TGI [45]: 2.99 µM
GI50 [47]: 1.56 µM
TGI [47]: 2.98 µM
GI50 [48]: 1.24 µM
TGI [48]: 2.54 µM
GI50 [49]: 0.416 µM
TGI [49]: 4.21 µM
GI50 [50]: 0.301 µM
TGI [50]: 4.14 µM
GI50 [51]: 3.51 µM
TGI [51]: 9.26 µM
GI50 [52]: 0.951 µM
TGI [52]: 3.32 µM
GI50 [60]: 1.37 µM
TGI [60]: 2.68 µM
GI50 [53]: 2.62 µM
TGI [53]: 5.86 µM
GI50 [54]: 1.34 µM
TGI [54]: 5.41 µM
GI50 [55]: 0.584 µM
TGI [55]: 3.52 µM
GI50 [56]: 2.1 µM
TGI [56]: 4.7 µM
GI50 [57]: 1.61 µM
TGI [57]: 2.98 µM
GI50 [58]: 1.44 µM
TGI [58]: 2.88 µM
GI50 [59]: 0.476 µM
TGI [59]: 2.56 µM
